Here are results for four molecules from patent US20180117249A1, “Warburg Effect Targeted Chemotherapy Apparatus” (Cure Cancer Worldwide LLC, priority 2010, published 2018).

Data set [1] is described as follows: Hypoglycemic glucose clamp in SCID mouse xenograft model. In kind it is in vivo. As for the experimental part:
The glucose clamp technique has been well developed in animals models for the purpose diabetes research. (Ayala, et al., 2011) We have adapted this technique for use in a SCID mouse xenograft model. FIG. 3 gives a schematic of this procedure. Briefly, mice are injected subcutaneously in the hind flank with a standard amount of cancer cells sufficient to cause a tumor to grow. After a few weeks when tumor volume measures around 300-500 mm3, mice undergo jugular vein cannulation. Mice are fasted for 5 hours prior to treatment with chemotherapy drugs. Depending on the pharmacokinetics of the drug, drugs are either given before the start of the glucose clamp or during the clamp procedure to correspond to the maximum effectiveness of the drug during the “hypoglycemia therapeutic window”. Injection pumps containing insulin, glucose and washed erythrocytes from donor mouse blood are connected to a swivel mixer which is in turn connected to the jugular catheters. For the initiation of the hypoglycemic clump, a bolus injection of insulin is given to reduce initial blood glucose levels which typically take around 30 minutes to lower blood glucose. Then a steady state of insulin and glucose is given to maintain blood glucose levels between 30-50 mg/dL for two hours. In practice, blood glucose levels range from 22-51 mg/dl with an average around 34 mg/dL (1.9 mmol/L). […]

Data set [2] relates to breast cancer cells. Particulars: cells incubated with insulin; cited from earlier work.
Data set [3] concerns human esophageal and colonic cancer cells. As to conditions: cited from earlier work.
Data set [4] is described as follows: Insulin-induced hypoglycemia safety profile (Xi'an, China). In kind it is in vivo, patients. The text has this: Cure Cancer Worldwide in conjunction with several hospitals in China have been treating patients using a combination of insulin induced hypoglycemia in combination with standard chemotherapy treatments, generally given multiple times in a 3 week window but at 10% the standard dose. The safety of these treatments has been evaluated as well as the side effects.

The subject of data set [5] is MDA-MB-231 breast cancer cells. As to conditions: cells incubated with insulin; cited from earlier work.
For data set [6], the system named is breast cancer cells. As to conditions: asynchronous population; 37% in controls; cited from earlier work.
For data set [7] the following is noted: cited from earlier work.
Data set [8] has as its system breast cancer. As to conditions: diabetic women taking metformin; diabetic control 8%, non-diabetic control 16%; cited from earlier work.
Data set [9] concerns breast cancer cells in culture. Particulars: methotrexate with insulin vs methotrexate alone; cited from earlier work.
[10] abbreviates: insulin several hours before 5-FU vs 5-FU without insulin.

In the case of insulin, the “time to lower blood glucose” value in data set [1] (bolus injection of insulin at initiation of clamp) is reported as “around 30 minutes”. For the same molecule, the “blood glucose levels, range in practice” value in data set [1] (steady state of insulin and glucose for two hours, target 30-50 mg/dL) is 22 to 51 mg/dL. The “stimulation of uptake of methotrexate” value in data set [2] was 50%. In data set [3] (setting [10]), the apoptotic cell populations result is “higher percentage of apoptotic cell populations” and the “inhibition of cell growth” value is listed as “greater inhibition of cell growth”. Further, in data set [3] (treatment of insulin), the “percent of S-phase cells” value is “increase in the percent of S-phase cells”. In data set [4] (950 insulin injections), the Comas is 0 n, the Deaths came to 0 n and the “Time Interval of Hypoglycemia” value is on record as 5-25 m. Moreover, in data set [4] (insulin induced hypoglycemia with chemotherapy at 10% standard dose, initial blood glucose 3.86-7.95 mmol/l, 950 insulin injections), the Hypoglycemia range was in the range of 1.0 to 3.4 mmol/L. In addition, the Conclusion result in [4] (insulin-induced hypoglycemia safety profile) is “safe”. Further, the “increase in the uptake of elipticine” value in data set [5] is 2 fold. In addition, in data set [6], the S-phase fraction is reported as 66%.

In the case of `O=CC[C@@H](O)[C@H](O)[C@H](O)CO` [2DG, 2-deoxyglucose], the ECG effect entry in data set [7] (Raez, et al., 2013) is given as “irregular Electrocardiograph (ECG) heart rhythms”. Besides, the “main failure point in the clinic” value in data set [7] (clinical trials) is “induced hyperglycemia”.

With `CN(C)C(=N)N=C(N)N` [metformin], in data set [8], the “pathological complete response (pCR) rate” value is reported as 24%.

`CN(Cc1cnc2nc(N)nc(N)c2n1)c1ccc(C(=O)N[C@@H](CCC(=O)O)C(=O)O)cc1` [methotrexate]: the lowering of methotrexate concentration for same percent cell killing in [9] was 10000 fold.
